Measured values: patent US20240255521A1, “Cilia Protein as Biomarkers and Methods of Use” (The Medical College of Wisconsin, Inc., priority 2021, published 2024)
Entries after “also recorded” stand apart in the source; their conditions may differ.

Tests used:
ARL13b on SS RBCs = assay: ARL13b bound to SS RBCs before and after flow chamber interaction with apocynin-pretreated brain ECs (flow cytometry); assay type: cell-based, human; details: ECs treated with 10 μM apocynin
Experimental: HBMVECs were cultured until they reached confluence on clear glass slides precoated with 2% gelatin. Slides coated with brain ECs were washed, then fit into a variable height flow chamber and tested for their ability to support adhesion of RBCs. The flow chamber was mounted on the stage of an inverted phase contrast microscope (Diaphot, Nikon Inc.) connected to a thermoplate (Tokai Hit Co., Ltd.) set at 37° C. Fluorescence-labeled RBCs suspended at 0.2% (v/v) in PBS with Ca^2+ and Mg^2+ were infused into the flow chamber and allowed to adhere to brain ECs for 10 minutes without flow. Before exposure to flow, a minimum of 3 fields at each of 7 different locations along a line oriented to future flow were examined, and the total number of fluorescent cells was counted. Fluid flow (PBS with Ca^2+ and Mg^2+) with a calibrated syringe pump was then started for a period of 15 minutes. Effluent was collected and tested by flow cytometry for cilia shedding from brain ECs by RBC contact. After exposure to flow, the fields were examined, and the number of fluorescent adherent RBCs to brain ECs was counted. The fraction of adherent cells was presented as number of cells attached per field after exposure to flow/total number of cells present per field before flow. […] To quantify total ROS, assay kit was used as per the manufacturer's instruction (Thermo Fisher Scientific, catalog 88-5930-74). […]

[1] = system: Human brain microvascular ECs; assay: ROS generation in brain ECs exposed to sickle RBCs (CM-H2-DCFDA, flow cytometry); assay type: cell-based; details: brain ECs pretreated with apocynin 10 μM for 1 hour, then exposed to SS RBCs for 10 minutes; P<0.0001
Experimental: Single-cell suspensions were washed 3 times with FACS buffer (1×PBS with 5% FBS and 0.1% NaN3) at 300 g for 5 minutes and were subsequently incubated with Live/Dead fixable yellow dead cell stain as per manufacturer's protocol, to exclude any dead cells, wherever applicable. Then, cells were fixed and permeabilized using Cytofix/Cytoperm buffer (BD, catalog 554722) or transcription factor buffer set (BD, catalog 562574) and stained for the following proteins: ARL13b, IFT88, Inversin, Dynein, γ-tubulin, Alk1, KLF4, HO-1, NRF2, and bACTIN. Suitable secondary reagents were used to detect the respective proteins. Primary antibodies were diluted 1:50, and secondary antibodies were diluted 1:500. BD perm wash buffer (catalog 554723) was used for antibody dilutions and washing. Primary antibodies were incubated for 45 minutes and secondaries for 30 minutes at 4° C. Suitable secondary antibody controls were included. To quantify total ROS, assay kit was used as per the manufacturer's instruction (Thermo Fisher Scientific, catalog 88-5930-74). After the completion of staining, cells were resuspended in FACS buffer. Stained cells were run on a flow cytometer (BD LSRFortessa). Sample acquisition was done using FACSDiva software (BD) with subsequent analysis on FlowJo software. […]

HBMVECs = assay: PMA-induced oxidative stress in HBMVECs with or without NOX inhibitor; ROS, HO-1 and cilia proteins by flow cytometry (MFI); assay type: cell-based, human
Experimental: Primary HBMVECs (Cell Systems Corporation catalog ACBRI 376) and HUVECs (Glyco Tech) were maintained at 37° C. in a 5% CO2 incubator in endothelial cell complete medium (Promocell, catalog C22010). As per vendor's description, cells were isolated from the cortex region of the brain from a pediatric donor. The cells were isolated without using antibody labeling to preserve the cells' natural properties for enhanced biological relevance. LL-CPK1 (CL101.1TM) porcine renal epithelial cells from proximal tubule were obtained from ATCC. All cell culture wells were seeded equally, and wells were randomized to control versus experimental conditions with duplicates or triplicates per condition. All experiments were performed between passages 4 and 6. Cells that had reached approximately 90% confluence were used in the shear stress experiment. For ROS quantification experiments, cells were treated with PMA (Sigma, catalog P8139-5MG) at a concentration of 50 ng/mL for 1 hour. To inhibit ROS production in respective experimental groups, cells were treated with 20 μM NOX inhibitor VAS 2870 (Sigma, catalog SML0273-5MG) 1 hour prior to PMA treatment.
Single-cell suspensions were washed 3 times with FACS buffer (1×PBS with 5% FBS and 0.1% NaN3) at 300 g for 5 minutes and were subsequently incubated with Live/Dead fixable yellow dead cell stain as per manufacturer's protocol, to exclude any dead cells, wherever applicable. Then, cells were fixed and permeabilized using Cytofix/Cytoperm buffer (BD, catalog 554722) or transcription factor buffer set (BD, catalog 562574) and stained for the following proteins: ARL13b, IFT88, Inversin, Dynein, γ-tubulin, Alk1, KLF4, HO-1, NRF2, and bACTIN. Suitable secondary reagents were used to detect the respective proteins. Primary antibodies were diluted 1:50, and secondary antibodies were diluted 1:500. BD perm wash buffer (catalog 554723) was used for antibody dilutions and washing. Primary antibodies were incubated for 45 minutes and secondaries for 30 minutes at 4° C. Suitable secondary antibody controls were included. To quantify total ROS, assay kit was used as per the manufacturer's instruction (Thermo Fisher Scientific, catalog 88-5930-74). After the completion of staining, cells were resuspended in FACS buffer. Stained cells were run on a flow cytometer (BD LSRFortessa). Sample acquisition was done using FACSDiva software (BD) with subsequent analysis on FlowJo software. To determine the presence of the ciliary protein ARL13b on human RBCs, unlabeled RBCs prior to infusion into the variable height flow chamber, and effluent containing RBCs collected postflow and RBCs postinteraction with brain ECs, were labeled with FITC-conjugated Arl13b antibody for 30 minutes on ice. RBCs were then washed and tested by flow cytometric analysis as previously described (49). To determine whether ROS generation in brain ECs can be increased by sickle RBCs and contributes to deciliation, slides coated with brain ECs were sham-treated or pretreated with the NOX inhibitor apocynin at 10 μM for 1 hour at 37° C., washed, and fitted into the flow chamber. Treated brain ECs were then exposed to unlabeled sickle RBCs for 10 minutes. Sickle RBCs were lysed with RBC lysis buffer and brain ECs scraped from the glass slide for testing for ROS levels using CM-H2-DCFDA (Invitrogen) as described previously in detail (50). One hundred thousand events per sample were acquired and tested by flow cytometric analysis. In separate experiments, and as described above, unlabeled sickle RBCs were tested by flow cytometry for ARL13b ciliary protein binding prior to infusion into the chamber (baseline levels) and postflow and once sickle RBCs interacted with brain ECs treated with 10 μM apocynin.

[2] = 20 μM VAS2870 1 hour prior to PMA 50 ng/mL
[3] = PMA 50 ng/mL for 1 hour vs untreated

## COc1cc(C(C)=O)ccc1O [apocynin]
ARL13b on SS RBCs
  cilia protein expression on sickle RBCs exposed to apocynin-treated brain ECs (in words): decreased cilia protein expression
ARL13b on SS RBCs; before exposure SS RBCs showed approximately 35% ARL13b, P<0.05, n=6
  ARL13b expression on SS RBCs after exposure to apocynin-treated brain ECs: approximately 20%
[1]
  ROS generation in ECs: reduced ROS generation in ECs to baseline levels

## c1ccc(Cn2nnc3c(Sc4nc5ccccc5o4)ncnc32)cc1 [VAS2870]
HBMVECs; [2]
  HO-1 levels: restored to control levels
  cilia-associated proteins NRF2, IFT88 and γ-tubulin levels: rescued; also recorded: restored to baseline; also recorded: returned to baseline
HBMVECs; 20 μM VAS2870 1 hour prior to PMA 50 ng/mL, vs PMA alone
  total ROS: partially attenuated; also recorded: quenched ROS production

## CCCCCCCCCCCCCC(=O)O[C@@H]1[C@@H](C)[C@@]2(O)[C@@H](C=C(CO)C[C@]3(O)C(=O)C(C)=C[C@@H]23)[C@@H]2C(C)(C)[C@]12OC(C)=O [PMA]
HBMVECs; [3]
  HO-1 levels: lower
  cilia-associated proteins NRF2, IFT88 and γ-tubulin levels: downregulated; also recorded: reduced; also recorded: decreased
  total ROS: induced ROS; also recorded: enhanced total ROS
